Data published in paper PMC5770468, “Cardiac glycoside/aglycones inhibit HIV-1 gene expression by a mechanism requiring MEK1/2-ERK1/2 signaling” (Scientific Reports, 2018).

How the values were obtained:
[1] = test system: PBMCs from HIV-infected patients; assay: Cell viability by XTT in HIV-infected patient PBMCs; type: cell-based, human; settings: up to 20 d of culture, relative to controls
Procedure: Figure 2 CSs inhibit the growth of clinical strains of HIV isolated from HIV infected patients. PBMCs from HIV infected patients were depleted of CD8^+ T cells (Supplementary Fig. S3), activated by anti-CD3 and anti-CD28 antibodies, and treated 20 d with indicated concentrations of drug/compound. HIV particle formation was quantitated by p24^CA ELISA of cell supernatants and viability of cells were assayed by XTT. […] (a–e) CSs potently impair the outgrowth of HIV from HIV-infected PBMCs (n = 3, mean, s.e.m.). Graphs of viral growth (p24 protein levels) and cell viability (gray circles, adjacent y-axis) of cells treated with drug/compounds (red triangles) or DMSO (black circles) are shown. The drug 3TC and the CS digoxin (d–e) were provided for comparison. […] Dose-response curves of CS effects on HIV replication (relative Gag expression, black circles) and cell viability (gray circles) were measured on day 14.
Human PBMCs were obtained for experiments from drug-naïve HIV-infected patients, depleted of CD8^+ T cells using Dynabeads CD8 (Invitrogen, #111.47D), activated with anti-CD3 and anti-CD28 antibodies, and treated as previously described and above[10],[11]. […] HIV growth in cultures was monitored by p24^CA ELISA of cell supernatants harvested (detailed below) and the effect of compounds on cell viability were monitored by XTT assay.

Tra2β = assay: Immunoblot of Tra2β in HeLa rtTA-HIV-ΔMls cells; type: cell-based, human; settings: 3 d with ~IC50s of CSs
Description: Figure 4 CSs suppress HIV-1 gene expression by altering viral RNA processing. […] (a,b) CSs induce oversplicing of HIV-1 RNAs (n ≥ 3, mean, s.e.m.). (a) Diagram of the primer positions (arrow heads) used for qRT-PCR. (b) Graph of the relative amount of US (black), SS (white), and MS (gray) HIV-1 RNAs in cells treated with various CSs. (c) Nuclear export of HIV-1 US RNAs in cells is altered by CSs (representative n ≥ 4). HIV-1 US RNAs were localized by FISH after treating HeLa rtTA-HIV(Gag-GFP) cells as described above but with ~IC90s of CSs. Nuclei were stained by DAPI and images captured at 630 × magnification. […] SRp20, Tra2β, and tubulin were analyzed by immunoblot of HeLa rtTA-HIV-ΔMls cells treated as described above except cells of this representative blot were treated 3 d with ~IC50s of CSs. […]
To monitor HIV-1 gene expression or replication, Gag release into cell culture supernatants were assayed by ELISA using a p24^CA antigen capture assay kit (AIDS & Cancer Virus Program, NCI-Frederick, Frederick, MD USA). […] For analysis of HIV-1 and SR protein expression (and phosphorylation states with calf intestinal alkaline phosphatase treatments), cells were lysed and analyzed by western blot as previously outlined. […] Activation of MAPKs was determined by western blot quantitation and calculation of phospho/total protein levels. […]

SMILES	cell viability of HIV-infected PBMCs [1]	abundance of a modified species of Tra2β (Tra2β)
C[C@]12CC[C@H](O)C[C@H]1CC[C@@H]1[C@@H]2CC[C@]2(C)[C@@H](C3=CC(=O)OC3)CC[C@]12O [Digitoxigenin]	no observable changes in cell viability	no effect
CC(=O)O[C@H]1C[C@H](O[C@H]2[C@@H](O)C[C@H](O[C@H]3[C@@H](O)C[C@H](O[C@H]4CC[C@@]5(C)[C@H](CC[C@@H]6[C@@H]5C[C@@H](O)[C@]5(C)[C@@H](C7=CC(=O)OC7)CC[C@]65O)C4)O[C@@H]3C)O[C@@H]2C)O[C@H](C)[C@H]1O[C@@H]1O[C@H](CO)[C@@H](O)[C@H](O)[C@H]1O [Lanatoside C]	–	no effect
C[C@H]1O[C@@H](O[C@H]2[C@@H](O)C[C@H](O[C@H]3[C@@H](O)C[C@H](O[C@H]4CC[C@@]5(C)[C@H](CC[C@@H]6[C@@H]5CC[C@]5(C)[C@@H](C7=CC(=O)OC7)CC[C@]65O)C4)O[C@@H]3C)O[C@@H]2C)C[C@H](O)[C@@H]1O [Digitoxin]	no observable changes in cell viability	–
